We go through three compounds from article PMC5880808, “A lever-like transduction pathway for long-distance chemical- and mechano-gating of the mechanosensitive Piezo1 channel” (Nature Communications, 2018).

One data set concerns the target T1, mPiezo1 (Mus musculus, UniProt E2JF22).
T1 construct: The full-length mPiezo1 has 2547 amino acids in each monomer; expressed in transfected cells; host or cells: HEK293T
Kind of data set: FLIPR GCAMP6s Ca2+ response of transfected HEK293T cells. The format is cell-based. The settings on record: for pEC50: Boltzmann fit, vector signal subtracted. The source says: Pharmacological compounds are invaluable tools for probing the structure-function relationship of ion channels. To identify specific chemical activators of Piezo channels, we have used the fluorescent imaging plate reader (FLIPR) in a 96-well format to screen about 3000 compounds for those that can evoke Ca^2+ increase in human embryonic kidney 293T (HEK293T) cells co-transfected with either mPiezo1 or mPiezo2, and the genetically encoded Ca^2+ reporter GCAMP6s (high Ca^2+ sensitivity but slow kinetics)[43]. We initially selected compounds that evoked Ca^2+ response in either Piezo1- or Piezo2-transfected cells and subsequently ruled out those nonspecific hits that caused Ca^2+ response in Piezo1-, Piezo2-, and vector-transfected cells (Fig. 2a). Eventually, we identified Jedi1 and Jedi2 as Piezo1 chemical activators, but no specific Piezo2 activators.
(§1) HEK293T cells were grown in Dulbecco’s modified Eagle medium containing 4.5 mg/ml glucose, 10% fetal bovine serum, and 1% penicillin/streptomycin. Cells were seeded in 50 μg/ml poly-D-lysine-coated 96-well plates (3 × 10^4 cells/well) and allowed to grow for about 18 h, and then co-transfected with a total of 250 ng cDNA containing Piezo1 or Piezo2 and GCaMP6s using Lipofectamine 2000 (Invitrogen, Life Technology). Two days after transfection the cells were washed with buffer containing 1× Hanks’ balanced salt solution (HBSS; 1.3 mM Ca^2+) and 10 mM HEPES (pH 7.2). The 96-well plates were then transferred to the FLIPR Tetra (Molecular Device) for monitoring the GCAMP6s fluorescence before and after addition of the compounds that were prepared in separate compound plates. For the initial screening, we screened about 3000 compounds derived from either the chemical library collected in Dr. Yu Rao’s lab, which is composed of different classes of heterocycles, including various drug scaffold or the Maybridge Ro3 Diversity Fragment Library purchased from Maybridge (Cambridge, UK), which consists of 2500 fragment compounds with a molecular weight below 350 and high rule of three compliance. Each compound was tested at a final concentration of 200 μM. Approximately 20 positive hits were selected for further testing in Piezo1-, Piezo2-, or vector-transfected cells. For subsequent characterizations, Jedi1 was purchased from the company of Alfa Aesar, while Jedi2 and Yoda1 were synthesized in the laboratories of Drs. Wei He and Liansuo Zu, respectively. See the Supplementary Experiment Procedures for the chemical synthesis. The dose response measurement by FLIPR was similar to previously described.

The target of the next data set is T2, mPiezo1 Q1344A (Mus musculus, UniProt E2JF22, Q1344A).
T2 construct: The full-length mPiezo1 has 2547 amino acids in each monomer; mCherry; expressed in transfected cells; host or cells: HEK293T
T2 sequence (E2JF22 whole entry Q1344A): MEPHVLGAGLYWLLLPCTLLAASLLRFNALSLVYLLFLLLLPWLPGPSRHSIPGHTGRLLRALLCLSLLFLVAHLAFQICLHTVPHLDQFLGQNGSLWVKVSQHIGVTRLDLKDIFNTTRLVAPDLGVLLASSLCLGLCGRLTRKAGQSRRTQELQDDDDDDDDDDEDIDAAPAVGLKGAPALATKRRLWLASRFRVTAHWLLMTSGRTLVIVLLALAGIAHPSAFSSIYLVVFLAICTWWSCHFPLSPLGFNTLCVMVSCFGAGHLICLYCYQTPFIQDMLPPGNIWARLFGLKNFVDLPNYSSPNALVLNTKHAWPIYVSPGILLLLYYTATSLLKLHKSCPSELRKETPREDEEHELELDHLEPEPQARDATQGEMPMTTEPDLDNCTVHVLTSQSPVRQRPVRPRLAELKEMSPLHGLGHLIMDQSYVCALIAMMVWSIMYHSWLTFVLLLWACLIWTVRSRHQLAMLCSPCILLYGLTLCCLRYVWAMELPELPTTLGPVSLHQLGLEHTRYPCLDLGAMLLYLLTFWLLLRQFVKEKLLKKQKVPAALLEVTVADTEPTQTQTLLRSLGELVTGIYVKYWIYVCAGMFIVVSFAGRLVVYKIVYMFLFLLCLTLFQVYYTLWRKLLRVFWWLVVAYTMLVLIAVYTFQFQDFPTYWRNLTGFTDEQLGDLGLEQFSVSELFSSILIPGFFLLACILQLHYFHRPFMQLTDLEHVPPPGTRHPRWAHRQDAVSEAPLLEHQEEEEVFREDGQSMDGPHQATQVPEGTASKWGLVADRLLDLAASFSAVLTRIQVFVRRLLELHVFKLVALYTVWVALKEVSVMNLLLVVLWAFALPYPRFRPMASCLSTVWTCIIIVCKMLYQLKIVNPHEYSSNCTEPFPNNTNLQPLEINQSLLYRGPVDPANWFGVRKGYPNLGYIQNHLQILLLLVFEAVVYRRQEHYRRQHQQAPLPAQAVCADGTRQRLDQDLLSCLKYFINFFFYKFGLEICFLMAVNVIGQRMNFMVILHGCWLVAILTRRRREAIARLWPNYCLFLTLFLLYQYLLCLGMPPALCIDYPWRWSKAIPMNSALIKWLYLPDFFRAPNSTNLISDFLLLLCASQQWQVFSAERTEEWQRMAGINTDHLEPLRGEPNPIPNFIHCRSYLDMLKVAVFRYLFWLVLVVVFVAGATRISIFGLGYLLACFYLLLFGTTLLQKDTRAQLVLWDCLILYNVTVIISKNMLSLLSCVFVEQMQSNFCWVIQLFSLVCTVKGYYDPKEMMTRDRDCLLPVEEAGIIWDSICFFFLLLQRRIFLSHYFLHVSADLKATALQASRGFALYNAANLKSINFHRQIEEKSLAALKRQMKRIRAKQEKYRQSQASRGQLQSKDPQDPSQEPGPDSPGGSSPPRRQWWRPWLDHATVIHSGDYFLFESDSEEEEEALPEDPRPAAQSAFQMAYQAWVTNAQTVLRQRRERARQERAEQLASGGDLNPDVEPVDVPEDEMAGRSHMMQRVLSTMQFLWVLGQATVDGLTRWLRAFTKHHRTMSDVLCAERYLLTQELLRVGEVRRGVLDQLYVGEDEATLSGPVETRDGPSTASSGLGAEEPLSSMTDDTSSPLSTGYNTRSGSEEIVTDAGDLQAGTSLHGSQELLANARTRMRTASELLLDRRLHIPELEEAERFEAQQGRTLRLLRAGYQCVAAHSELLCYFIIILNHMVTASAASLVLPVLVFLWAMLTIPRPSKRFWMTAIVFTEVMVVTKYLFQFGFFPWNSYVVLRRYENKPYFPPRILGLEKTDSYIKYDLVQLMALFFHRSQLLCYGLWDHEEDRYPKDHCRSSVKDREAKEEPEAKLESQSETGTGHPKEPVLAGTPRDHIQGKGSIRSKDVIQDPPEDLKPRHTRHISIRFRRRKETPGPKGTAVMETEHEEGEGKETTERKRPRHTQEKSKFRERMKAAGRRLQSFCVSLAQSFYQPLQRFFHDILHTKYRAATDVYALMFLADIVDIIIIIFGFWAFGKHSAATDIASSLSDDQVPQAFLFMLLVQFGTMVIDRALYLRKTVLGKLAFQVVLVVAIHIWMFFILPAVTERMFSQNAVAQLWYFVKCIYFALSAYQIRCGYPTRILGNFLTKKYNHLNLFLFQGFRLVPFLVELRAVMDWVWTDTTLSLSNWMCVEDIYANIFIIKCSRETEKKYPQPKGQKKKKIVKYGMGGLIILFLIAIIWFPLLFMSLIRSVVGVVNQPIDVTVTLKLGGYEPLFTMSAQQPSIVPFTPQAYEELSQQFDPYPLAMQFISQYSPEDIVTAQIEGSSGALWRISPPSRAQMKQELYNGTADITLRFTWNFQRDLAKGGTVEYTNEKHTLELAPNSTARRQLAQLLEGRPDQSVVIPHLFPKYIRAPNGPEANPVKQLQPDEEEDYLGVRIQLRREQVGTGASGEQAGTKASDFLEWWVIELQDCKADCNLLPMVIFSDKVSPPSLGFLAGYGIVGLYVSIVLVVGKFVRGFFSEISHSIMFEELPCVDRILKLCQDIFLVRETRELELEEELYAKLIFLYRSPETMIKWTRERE
Kind of data set: Fura-2 single-cell Ca2+ imaging, Q1344A mutant. In kind it is cell-based. The settings on record: 1 mM Jedi1, 30 µM Yoda1. Here is the method:
(§2) Fura-2 single-cell Ca^2+ imaging was performed according to the previous protocol. In brief, mCherry-Piezo1 cDNA (1 μg)-transfected HEK293T cells were plated onto 12-mm round glass coverslips, which were coated with poly-D-lysine and placed in 24-well plates, and subject to Fura-2 single-cell Ca^2+ imaging about 36 h post transfection. Cells were washed with buffer containing 1× HBSS (1.3 mM Ca^2+) and 10 mM HEPES (pH 7.2), incubated with 2.5 μM Fura-2 and 0.05% Pluronic F-127 (Life Technologies) for 30 min, then washed again with the previously mentioned buffer. The coverslip was mounted into an inverted Nikon-Tie microscope equipped with a CoolSNAP charge-coupled devise (CCD) camera and Lambda XL light box (Sutter Instrument), and mCherry-positive and -negative cells were selected for measurement of the 340/380 ratio with a ×20 objective (numerical aperture 0.75) using the MetaFluor Fluorescence Ratio Imaging software (Molecular Device).

In a further data set the target is T3, Human Piezo1 (hPiezo1) (Homo sapiens, UniProt Q92508).
T3 construct: expressed in transfected cells; host or cells: HEK293T
T3 sequence (Q92508 whole entry): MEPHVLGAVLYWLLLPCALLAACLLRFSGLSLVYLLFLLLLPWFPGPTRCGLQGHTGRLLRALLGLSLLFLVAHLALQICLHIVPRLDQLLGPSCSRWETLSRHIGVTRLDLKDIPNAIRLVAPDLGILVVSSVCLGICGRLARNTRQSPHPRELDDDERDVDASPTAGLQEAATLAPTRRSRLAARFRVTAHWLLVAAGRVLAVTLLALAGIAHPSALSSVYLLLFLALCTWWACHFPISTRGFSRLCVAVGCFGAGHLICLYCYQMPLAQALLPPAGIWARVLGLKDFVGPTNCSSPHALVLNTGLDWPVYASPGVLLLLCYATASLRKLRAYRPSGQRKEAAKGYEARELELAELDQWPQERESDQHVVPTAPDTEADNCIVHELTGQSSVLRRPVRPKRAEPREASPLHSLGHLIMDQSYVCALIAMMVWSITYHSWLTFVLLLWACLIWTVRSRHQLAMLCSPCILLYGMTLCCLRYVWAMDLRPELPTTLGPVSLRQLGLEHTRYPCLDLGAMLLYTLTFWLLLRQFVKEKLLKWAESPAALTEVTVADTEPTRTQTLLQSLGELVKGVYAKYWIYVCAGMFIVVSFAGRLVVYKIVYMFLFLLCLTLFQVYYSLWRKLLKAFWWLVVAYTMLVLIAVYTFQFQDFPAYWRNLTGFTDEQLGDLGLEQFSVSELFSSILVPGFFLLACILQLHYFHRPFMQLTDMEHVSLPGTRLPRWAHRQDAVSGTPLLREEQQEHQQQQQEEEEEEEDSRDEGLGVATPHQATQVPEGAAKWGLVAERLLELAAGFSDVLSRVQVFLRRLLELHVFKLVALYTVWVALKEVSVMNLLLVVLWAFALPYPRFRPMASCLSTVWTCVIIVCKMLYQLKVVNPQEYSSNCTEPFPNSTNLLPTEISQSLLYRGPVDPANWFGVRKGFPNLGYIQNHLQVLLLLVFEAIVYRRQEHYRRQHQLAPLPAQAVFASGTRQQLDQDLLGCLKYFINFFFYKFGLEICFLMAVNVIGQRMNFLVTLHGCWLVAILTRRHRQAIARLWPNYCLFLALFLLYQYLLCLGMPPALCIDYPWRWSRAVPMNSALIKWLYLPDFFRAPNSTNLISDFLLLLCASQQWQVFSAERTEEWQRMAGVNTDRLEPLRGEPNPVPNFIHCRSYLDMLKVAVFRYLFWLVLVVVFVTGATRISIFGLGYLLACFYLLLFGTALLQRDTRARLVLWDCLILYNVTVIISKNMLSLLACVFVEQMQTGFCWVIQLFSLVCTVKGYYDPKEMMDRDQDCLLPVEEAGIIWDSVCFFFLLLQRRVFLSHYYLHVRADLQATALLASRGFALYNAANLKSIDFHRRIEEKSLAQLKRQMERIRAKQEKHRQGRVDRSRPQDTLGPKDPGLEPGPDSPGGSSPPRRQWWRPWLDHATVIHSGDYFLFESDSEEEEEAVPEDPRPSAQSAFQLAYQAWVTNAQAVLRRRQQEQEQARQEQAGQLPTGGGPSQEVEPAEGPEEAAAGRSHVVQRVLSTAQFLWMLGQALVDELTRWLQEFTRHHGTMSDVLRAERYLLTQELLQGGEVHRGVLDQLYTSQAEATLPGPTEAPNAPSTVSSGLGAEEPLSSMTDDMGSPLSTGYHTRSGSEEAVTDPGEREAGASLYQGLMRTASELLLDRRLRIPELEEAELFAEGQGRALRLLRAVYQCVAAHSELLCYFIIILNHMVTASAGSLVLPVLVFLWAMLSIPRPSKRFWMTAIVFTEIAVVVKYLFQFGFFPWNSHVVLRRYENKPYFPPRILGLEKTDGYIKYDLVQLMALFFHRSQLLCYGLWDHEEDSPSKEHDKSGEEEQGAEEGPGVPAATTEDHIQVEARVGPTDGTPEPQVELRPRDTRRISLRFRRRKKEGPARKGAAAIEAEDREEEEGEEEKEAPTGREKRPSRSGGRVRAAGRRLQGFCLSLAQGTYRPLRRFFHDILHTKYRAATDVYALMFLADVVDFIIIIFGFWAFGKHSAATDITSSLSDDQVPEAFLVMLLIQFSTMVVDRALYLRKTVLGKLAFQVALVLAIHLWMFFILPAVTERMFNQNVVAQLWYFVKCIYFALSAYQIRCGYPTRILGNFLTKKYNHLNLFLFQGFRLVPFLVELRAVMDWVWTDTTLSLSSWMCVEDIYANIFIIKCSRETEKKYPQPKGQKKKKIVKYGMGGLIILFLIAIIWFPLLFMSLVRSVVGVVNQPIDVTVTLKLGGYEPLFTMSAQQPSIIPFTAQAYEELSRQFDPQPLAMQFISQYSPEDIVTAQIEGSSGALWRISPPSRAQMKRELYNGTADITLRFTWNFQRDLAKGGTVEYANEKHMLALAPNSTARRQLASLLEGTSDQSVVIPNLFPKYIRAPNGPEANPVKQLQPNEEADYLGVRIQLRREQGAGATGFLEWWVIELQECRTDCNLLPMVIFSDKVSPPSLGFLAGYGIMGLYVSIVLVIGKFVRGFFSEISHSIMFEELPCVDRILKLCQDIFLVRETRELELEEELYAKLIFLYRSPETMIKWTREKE
Kind of data set: Fura-2 single-cell Ca2+ imaging of hPiezo1-expressing cells. The format is cell-based. Here is the method:
as §2

Data set [1] relates to mPiezo1 loop deletion mutants ΔL15-16 (657-677) and ΔL19-20 (870–921). The experiment in a line: FLIPR GCAMP6s Ca2+ dose response, loop deletion mutants. The format is cell-based, mouse. The settings on record: ΔL15-16 and ΔL19-20, FLIPR. The protocol:
as §1, with “For subsequent characterizations, Jedi1 was purchased from the company of Alfa Aesar, while Jedi2 and Yoda1 were synthesized in the laboratories of Drs. Wei He and Liansuo Zu, respectively. See the Supplementary Experiment Procedures for the chemical synthesis. The dose response measurement by FLIPR was similar to previously described.” left out

A further data set can be described thus: Water solubility. The format is physicochemical. The settings on record: up to.
Another data set deals with Piezo1. Further details: method as in PMID 26001275. The conditions noted are these: read-out: estimated EC50; cited from earlier work.
The test system of data set [2] is mPiezo1 loop deletion mutants ΔL15-16 (657-677) and ΔL19-20 (870–921). Also noted: method as in PMID 29469092. The settings on record: ΔL15-16 and ΔL19-20; cited from earlier work.
Data set [3] shares this test system. Further details: method as in PMID 29469092. The conditions noted are these: ΔL15-16 and ΔL19-20; cited from earlier work. The source holds these as a separate data set.
Details of data set [4]: method as in PMID 26001275. The settings on record: up; cited from earlier work.

The structures appear in SMILES notation. pEC50: −log10 of the molar value. ≈ marks a conversion by molar mass, not a printed value.

T1 sequence (E2JF22 whole entry): as the sequence (E2JF22 whole entry Q1344A) above, with A1344Q counted along it

Broadly, the Hill coefficient is a measure of the steepness of the concentration-response curve. What is called pEC50 is the negative decadic logarithm of the EC50, by convention in mol/L. The term solubility denotes how much of the substance goes into solution per volume. A lower solubility goes with little dissolved substance. In the case of `Cc1oc(-c2ccccc2)cc1C(=O)O` [Jedi1], on mPiezo1, the Hill coefficient was ~ 1.5 and the pEC50 is roughly 3.70. Further, the “effect of the Q1344A mutation on compound-induced Ca2+ responses” value on mPiezo1 Q1344A is “did not affect”. For the same compound, the “Ca2+ response (Fura-2)” value on Human Piezo1 (hPiezo1) is reported as “responded to Jedi1 as well”. For the same compound, the “Ca2+ response of loop deletion mutants” value in data set [1] is given as “no dose-dependent Ca^2+ responses”. The same compound gave a solubility in “Water solubility” of roughly 2000 µM (≈ 404 µg/mL).
On mPiezo1, `Cc1oc(-c2cccs2)cc1C(=O)O` [Jedi2] gave a Hill coefficient of 1.6 and a negative-log EC50 (pEC50) of 3.80. Moreover, the “Ca2+ response of loop deletion mutants” value in data set [1] is on record as “no dose-dependent Ca^2+ responses”. The solubility in the data set “Water solubility” is roughly 2000 µM (≈ 416 µg/mL).
As to `Clc1cccc(Cl)c1CSc1nnc(-c2cnccn2)s1` [Yoda1, reference compound], the “effect of the Q1344A mutation on compound-induced Ca2+ responses” value on mPiezo1 Q1344A is listed as “did not affect”. Also, the pEC50 with Piezo1 was roughly 4.77. In addition, the “ability to evoke Ca2+ responses in loop deletion mutants” value in data set [2] is recorded as “retained its ability”. In addition, the “ability to potentiate poking-induced currents of loop deletion mutants” value in [3] is given as “retained its ability”. The water solubility in [4] is on record as ~ 30 μM.
